In ChEMBL document CHEMBL5465560, “Selectivity Literature for EUbOPEN Chemogenomic Library” (2024):
Values belong to the compound of their own block, whether it stands above or below them.

Tests used:
[1] = target: Bromodomain and WD repeat-containing protein 1 (Homo sapiens) (UniProt Q9NSI6); experiment: Selectivity interaction (Human bromodomain panel (DSF assay)) EUB0000233b BRWD1
[2] = target: Histone-lysine N-methyltransferase ASH1L (Homo sapiens) (UniProt Q9NR48); details: at 10 µM
[3] = target: cAMP-dependent protein kinase catalytic subunit beta (Homo sapiens) (UniProt P22694); experiment: Selectivity interaction (LanthaScreen Eu Kinase Binding Assay) EUB0001632a PRKACB; details: at 10 µM
[4] = target: T1, Hormonally up-regulated neu tumor-associated kinase (Homo sapiens) (UniProt P57058); experiment: Selectivity interaction (LanthaScreen Eu Kinase Binding Assay) EUB0001632a HUNK; details: at 10 µM
T1 sequence (whole entry): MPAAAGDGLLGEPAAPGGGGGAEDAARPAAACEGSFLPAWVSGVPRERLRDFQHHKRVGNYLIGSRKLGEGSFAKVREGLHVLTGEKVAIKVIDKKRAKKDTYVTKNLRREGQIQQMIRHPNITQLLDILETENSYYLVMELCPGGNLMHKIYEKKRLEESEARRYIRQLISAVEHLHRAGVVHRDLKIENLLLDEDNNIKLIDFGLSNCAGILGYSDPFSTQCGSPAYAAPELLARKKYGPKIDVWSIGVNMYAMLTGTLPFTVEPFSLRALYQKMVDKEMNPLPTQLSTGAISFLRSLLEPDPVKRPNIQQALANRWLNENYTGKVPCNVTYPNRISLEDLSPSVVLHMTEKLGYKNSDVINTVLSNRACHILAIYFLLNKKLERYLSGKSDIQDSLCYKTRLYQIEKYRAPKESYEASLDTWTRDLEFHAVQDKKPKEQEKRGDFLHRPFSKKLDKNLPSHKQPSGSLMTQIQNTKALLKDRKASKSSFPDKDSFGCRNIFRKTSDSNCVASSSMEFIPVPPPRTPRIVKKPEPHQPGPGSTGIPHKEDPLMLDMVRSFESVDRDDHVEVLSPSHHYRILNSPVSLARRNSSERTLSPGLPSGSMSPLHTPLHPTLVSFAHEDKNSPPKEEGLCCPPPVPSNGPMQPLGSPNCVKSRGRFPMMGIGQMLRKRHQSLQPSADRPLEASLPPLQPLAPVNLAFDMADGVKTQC

[5] = Selectivity interaction (NMDA Channel site assay : rat brain cortex ) EUB0000877a GRIN1
[6] = target: Tyrosine-protein kinase SYK (Homo sapiens, UniProt P43405)
[7] = tested on: Leucine-rich repeat serine/threonine-protein kinase 2 (Homo sapiens), Q5S007 [G2019S]; details: at 1 µM
Chain of Leucine-rich repeat serine/threonine-protein kinase 2 (Homo sapiens), Q5S007 [G2019S] (Q5S007 whole entry G2019S, canonical isoform): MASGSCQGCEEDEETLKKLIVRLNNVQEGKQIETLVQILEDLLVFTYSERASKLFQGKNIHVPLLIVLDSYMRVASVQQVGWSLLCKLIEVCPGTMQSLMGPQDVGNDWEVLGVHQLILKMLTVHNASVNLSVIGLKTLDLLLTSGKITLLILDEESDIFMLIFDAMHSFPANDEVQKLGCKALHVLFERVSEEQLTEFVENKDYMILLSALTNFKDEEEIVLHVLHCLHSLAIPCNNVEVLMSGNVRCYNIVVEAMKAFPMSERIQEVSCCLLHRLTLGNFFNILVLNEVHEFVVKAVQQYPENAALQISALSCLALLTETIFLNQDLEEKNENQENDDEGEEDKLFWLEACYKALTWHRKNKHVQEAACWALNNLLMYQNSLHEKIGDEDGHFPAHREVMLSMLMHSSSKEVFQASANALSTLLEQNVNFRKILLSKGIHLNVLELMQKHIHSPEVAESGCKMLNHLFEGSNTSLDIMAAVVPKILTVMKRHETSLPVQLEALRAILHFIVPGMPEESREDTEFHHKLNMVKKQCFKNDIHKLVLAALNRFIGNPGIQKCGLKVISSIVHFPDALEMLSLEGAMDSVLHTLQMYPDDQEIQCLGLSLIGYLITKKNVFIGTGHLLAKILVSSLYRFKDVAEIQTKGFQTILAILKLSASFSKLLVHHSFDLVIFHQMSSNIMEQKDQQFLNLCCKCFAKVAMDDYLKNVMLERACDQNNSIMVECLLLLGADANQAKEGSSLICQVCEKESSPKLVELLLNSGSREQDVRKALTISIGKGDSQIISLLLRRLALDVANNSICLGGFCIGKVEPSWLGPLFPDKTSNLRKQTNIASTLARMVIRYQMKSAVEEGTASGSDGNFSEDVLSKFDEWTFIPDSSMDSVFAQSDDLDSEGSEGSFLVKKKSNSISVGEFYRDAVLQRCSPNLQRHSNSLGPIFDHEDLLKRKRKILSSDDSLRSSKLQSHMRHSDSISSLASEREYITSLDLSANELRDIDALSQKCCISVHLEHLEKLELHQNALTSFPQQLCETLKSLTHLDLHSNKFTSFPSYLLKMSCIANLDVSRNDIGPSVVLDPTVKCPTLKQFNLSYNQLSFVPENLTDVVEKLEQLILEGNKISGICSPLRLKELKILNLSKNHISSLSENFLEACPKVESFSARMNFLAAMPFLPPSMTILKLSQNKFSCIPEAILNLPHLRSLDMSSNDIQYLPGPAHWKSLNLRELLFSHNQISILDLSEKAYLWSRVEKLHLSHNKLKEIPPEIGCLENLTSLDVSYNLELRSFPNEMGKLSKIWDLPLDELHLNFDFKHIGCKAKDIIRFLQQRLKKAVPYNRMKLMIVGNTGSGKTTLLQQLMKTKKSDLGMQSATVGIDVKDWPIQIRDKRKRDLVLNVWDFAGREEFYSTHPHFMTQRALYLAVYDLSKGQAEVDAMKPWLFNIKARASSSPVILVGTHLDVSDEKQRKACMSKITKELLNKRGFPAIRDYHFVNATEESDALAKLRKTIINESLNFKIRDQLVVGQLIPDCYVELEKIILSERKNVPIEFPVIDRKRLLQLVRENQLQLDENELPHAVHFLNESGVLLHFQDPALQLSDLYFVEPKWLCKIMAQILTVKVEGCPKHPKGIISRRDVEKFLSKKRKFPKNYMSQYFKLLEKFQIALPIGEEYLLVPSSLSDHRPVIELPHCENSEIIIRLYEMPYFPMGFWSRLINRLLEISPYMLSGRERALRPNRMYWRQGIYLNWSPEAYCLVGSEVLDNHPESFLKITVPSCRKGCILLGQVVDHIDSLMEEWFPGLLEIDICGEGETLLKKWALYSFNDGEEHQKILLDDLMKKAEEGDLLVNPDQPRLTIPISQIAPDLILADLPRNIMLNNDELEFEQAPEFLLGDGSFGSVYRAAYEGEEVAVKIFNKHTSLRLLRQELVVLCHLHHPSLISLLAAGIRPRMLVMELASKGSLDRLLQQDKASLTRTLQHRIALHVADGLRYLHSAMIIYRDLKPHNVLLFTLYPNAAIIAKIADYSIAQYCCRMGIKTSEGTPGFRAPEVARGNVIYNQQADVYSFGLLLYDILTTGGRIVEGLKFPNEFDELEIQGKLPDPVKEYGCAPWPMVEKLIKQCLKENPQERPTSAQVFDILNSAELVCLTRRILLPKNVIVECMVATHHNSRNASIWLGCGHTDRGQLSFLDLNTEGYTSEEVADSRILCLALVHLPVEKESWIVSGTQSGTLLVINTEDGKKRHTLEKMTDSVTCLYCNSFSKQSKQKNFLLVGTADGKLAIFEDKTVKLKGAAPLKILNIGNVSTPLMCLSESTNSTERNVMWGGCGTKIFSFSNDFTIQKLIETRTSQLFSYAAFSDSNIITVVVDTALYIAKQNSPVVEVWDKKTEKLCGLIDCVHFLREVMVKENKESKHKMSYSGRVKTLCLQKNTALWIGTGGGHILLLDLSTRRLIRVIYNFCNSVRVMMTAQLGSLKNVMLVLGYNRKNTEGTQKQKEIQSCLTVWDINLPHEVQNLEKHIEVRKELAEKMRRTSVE

[8] = target: T2, Phosphorylase b kinase gamma catalytic chain, liver/testis isoform (Homo sapiens) (UniProt P15735); experiment: Selectivity interaction (KinomeScan (DiscoverX)) EUB0000618a PHKG2; details: at 10 µM
T2 sequence (whole entry): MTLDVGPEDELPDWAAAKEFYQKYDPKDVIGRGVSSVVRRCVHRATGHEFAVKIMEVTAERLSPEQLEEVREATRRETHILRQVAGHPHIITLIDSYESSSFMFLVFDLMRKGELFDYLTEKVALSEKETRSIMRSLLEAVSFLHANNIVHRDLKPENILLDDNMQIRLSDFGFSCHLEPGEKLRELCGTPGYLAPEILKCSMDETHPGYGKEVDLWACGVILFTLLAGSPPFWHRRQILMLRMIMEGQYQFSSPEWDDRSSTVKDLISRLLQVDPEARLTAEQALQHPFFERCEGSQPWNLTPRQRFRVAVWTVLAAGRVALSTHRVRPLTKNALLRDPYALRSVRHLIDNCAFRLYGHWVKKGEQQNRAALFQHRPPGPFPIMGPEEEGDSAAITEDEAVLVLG

[9] = target: T3, Cyclin-dependent kinase 11A (Homo sapiens) (UniProt Q9UQ88); experiment: Selectivity interaction (ActivX KiNativ screen (kinase selectivity in THP-1 cell lysates)) EUB0000639a CDK11A; type: subcellular; details: lysate, at 0.01 µM
T3 sequence (whole entry): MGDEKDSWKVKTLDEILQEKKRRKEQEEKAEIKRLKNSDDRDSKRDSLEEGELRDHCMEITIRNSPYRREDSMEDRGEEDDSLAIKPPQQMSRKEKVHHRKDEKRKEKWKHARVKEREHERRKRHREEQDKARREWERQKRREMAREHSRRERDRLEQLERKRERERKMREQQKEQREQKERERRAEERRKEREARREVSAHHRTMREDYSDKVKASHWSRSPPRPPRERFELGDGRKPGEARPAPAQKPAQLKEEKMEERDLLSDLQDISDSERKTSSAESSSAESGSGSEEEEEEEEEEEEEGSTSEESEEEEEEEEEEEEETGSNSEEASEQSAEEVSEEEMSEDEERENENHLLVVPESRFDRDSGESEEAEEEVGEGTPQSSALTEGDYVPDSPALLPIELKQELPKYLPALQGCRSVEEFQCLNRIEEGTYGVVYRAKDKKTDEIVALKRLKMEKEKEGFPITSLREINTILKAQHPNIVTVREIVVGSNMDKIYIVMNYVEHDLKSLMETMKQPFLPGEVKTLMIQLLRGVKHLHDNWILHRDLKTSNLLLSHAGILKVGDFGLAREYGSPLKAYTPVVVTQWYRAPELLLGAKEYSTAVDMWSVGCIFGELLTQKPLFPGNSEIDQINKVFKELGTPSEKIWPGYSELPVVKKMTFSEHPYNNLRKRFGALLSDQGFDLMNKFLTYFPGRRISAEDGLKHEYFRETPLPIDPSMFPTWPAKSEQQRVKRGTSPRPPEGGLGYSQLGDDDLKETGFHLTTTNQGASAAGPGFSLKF

[10] = target: Serine/threonine-protein kinase WNK1 (Homo sapiens) (UniProt Q9H4A3); experiment: Selectivity interaction (ActivX KiNativ screen (kinase selectivity in THP-1 cell lysates)) EUB0000639a WNK1; type: subcellular; details: lysate, at 0.04 µM
[11] = target: Phosphatidylinositol 4,5-bisphosphate 3-kinase catalytic subunit gamma isoform (Homo sapiens) (UniProt P48736); experiment: Selectivity interaction (ActivX KiNativ screen (kinase selectivity in THP-1 cell lysates)) EUB0000639a PIK3CG; type: subcellular; details: lysate
Chain of Phosphatidylinositol 4,5-bisphosphate 3-kinase catalytic subunit gamma isoform (Homo sapiens) (P48736 whole entry, looked up, canonical isoform): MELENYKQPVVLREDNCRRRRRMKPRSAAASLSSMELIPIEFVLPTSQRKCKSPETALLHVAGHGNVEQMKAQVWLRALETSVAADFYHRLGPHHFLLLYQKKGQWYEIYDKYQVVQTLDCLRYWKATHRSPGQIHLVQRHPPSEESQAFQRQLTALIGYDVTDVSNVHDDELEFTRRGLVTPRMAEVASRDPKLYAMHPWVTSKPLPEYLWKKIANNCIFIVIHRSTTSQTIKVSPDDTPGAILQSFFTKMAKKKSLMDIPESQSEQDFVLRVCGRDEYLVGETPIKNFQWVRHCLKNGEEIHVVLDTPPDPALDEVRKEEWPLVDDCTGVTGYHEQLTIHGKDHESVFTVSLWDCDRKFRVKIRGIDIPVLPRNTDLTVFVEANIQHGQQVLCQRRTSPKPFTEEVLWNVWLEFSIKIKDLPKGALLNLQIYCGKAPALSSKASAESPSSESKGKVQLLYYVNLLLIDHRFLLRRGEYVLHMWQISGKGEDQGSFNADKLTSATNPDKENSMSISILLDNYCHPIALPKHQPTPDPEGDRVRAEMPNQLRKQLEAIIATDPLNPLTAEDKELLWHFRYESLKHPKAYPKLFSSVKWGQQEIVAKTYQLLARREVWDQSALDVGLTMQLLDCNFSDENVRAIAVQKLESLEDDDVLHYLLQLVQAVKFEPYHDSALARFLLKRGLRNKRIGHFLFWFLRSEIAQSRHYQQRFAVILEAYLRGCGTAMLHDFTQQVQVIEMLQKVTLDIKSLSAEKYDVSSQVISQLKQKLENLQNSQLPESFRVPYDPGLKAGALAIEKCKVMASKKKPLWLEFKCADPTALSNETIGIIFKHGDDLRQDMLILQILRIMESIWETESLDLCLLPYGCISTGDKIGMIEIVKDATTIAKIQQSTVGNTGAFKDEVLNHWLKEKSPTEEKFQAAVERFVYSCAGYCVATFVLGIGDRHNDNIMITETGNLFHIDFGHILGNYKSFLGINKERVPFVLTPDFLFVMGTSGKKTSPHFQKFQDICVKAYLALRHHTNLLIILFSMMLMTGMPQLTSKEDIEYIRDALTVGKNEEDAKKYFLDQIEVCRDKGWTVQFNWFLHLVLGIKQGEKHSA

[12] = target: Serine/threonine-protein kinase PAK 1 (Homo sapiens) (UniProt Q13153); details: at 10 µM
Chain of Serine/threonine-protein kinase PAK 1 (Homo sapiens) (Q13153 whole entry): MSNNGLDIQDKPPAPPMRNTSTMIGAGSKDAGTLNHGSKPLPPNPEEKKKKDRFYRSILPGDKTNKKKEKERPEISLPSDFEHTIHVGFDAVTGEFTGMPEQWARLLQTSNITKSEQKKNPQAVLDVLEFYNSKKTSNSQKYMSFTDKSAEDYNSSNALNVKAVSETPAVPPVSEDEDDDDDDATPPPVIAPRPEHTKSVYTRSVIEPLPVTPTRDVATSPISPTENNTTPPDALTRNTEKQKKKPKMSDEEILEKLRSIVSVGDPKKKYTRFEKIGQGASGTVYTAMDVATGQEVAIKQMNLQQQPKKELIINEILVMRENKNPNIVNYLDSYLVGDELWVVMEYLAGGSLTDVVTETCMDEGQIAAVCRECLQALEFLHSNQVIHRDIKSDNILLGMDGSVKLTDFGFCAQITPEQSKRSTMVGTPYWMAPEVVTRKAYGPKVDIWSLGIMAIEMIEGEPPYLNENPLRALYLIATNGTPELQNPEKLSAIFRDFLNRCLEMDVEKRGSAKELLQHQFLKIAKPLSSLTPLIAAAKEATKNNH

SMILES: CNCCN1CCC(c2cc(CN(C)C(=O)c3cccc(Oc4ccccc4)c3)ccn2)CC1
% activity [2]: > 90%

SMILES: CCC(=O)N1CC[C@H](Nc2ncnc3c2CN(c2cnc(OC)c(C(F)(F)F)c2)CC3)C1 [LENIOLISIB]
IC50 [5]: > 30 µM

SMILES: N#Cc1cccc(-c2c[nH]c3ncnc(N4CCOCC4)c23)c1
% of control [7]: 75%

SMILES: O[C@H]1CC[C@H](Nc2ncc3nc(Nc4c(F)cc(F)cc4F)n([C@H]4CCOC4)c3n2)CC1
% of control [8]: 99%

SMILES: CCN(CC)CCCCNc1ncc2cc(-c3cc(OC)cc(OC)c3)c(NC(=O)NC(C)(C)C)nc2n1
% of control [12]: 100%

The remaining lines, values ahead:

dTM [1]: < 2 K
SMILES: CN(C)CCCOc1ccc(-c2cc(NCCCn3cccn3)nc(S(C)(=O)=O)n2)cc1

% of inhibition [3]: 4.17% | % of inhibition [4]: -12%
SMILES: Cn1cc(-n2cnc3c(NCc4nc5cc(Cl)c(Cl)cc5[nH]4)nc(N4CCOCC4)nc32)cn1

IC50 [6]: > 10 µM
SMILES: CCc1cccc(CC)c1NC(=O)c1nn(C)c2c1CCc1cnc(Nc3ccc(C(=O)NC4CCN(C)CC4)cc3OC(F)(F)F)nc1-2

% of inhibition [9]: 11.4% | % of inhibition [10]: -7.4% | % of inhibition ([11]; at 0.01 µM): 6.3% | % of inhibition ([11]; at 0.04 µM): 12% | % of inhibition ([11]; at 0.2 µM): 7.4% | % of inhibition ([11]; at 1 µM): 13.3% | % of inhibition ([11]; at 5 µM): 2.6%
SMILES: CC[C@@H]1[C@H](F)C(=O)N[C@@H]1COc1nccc2cc(C(N)=O)c(OC)cc12 [ZIMLOVISERTIB]
